The results in this text go back to patent US20060004012A1, “Compounds, pharmaceutical compositions and methods for use in treating metabolic disorders” (priority 2004, published 2006).

The assay deals with T1, human GPR40 (Homo sapiens, UniProt O14842).
T1 construct: expressed in transfected cells; host or cells: CHO cells, transiently transfected with Lipofectamine 2000 and co-transfected with an aequorin expression vector (Euroscreen)
T1 sequence (O14842 whole entry): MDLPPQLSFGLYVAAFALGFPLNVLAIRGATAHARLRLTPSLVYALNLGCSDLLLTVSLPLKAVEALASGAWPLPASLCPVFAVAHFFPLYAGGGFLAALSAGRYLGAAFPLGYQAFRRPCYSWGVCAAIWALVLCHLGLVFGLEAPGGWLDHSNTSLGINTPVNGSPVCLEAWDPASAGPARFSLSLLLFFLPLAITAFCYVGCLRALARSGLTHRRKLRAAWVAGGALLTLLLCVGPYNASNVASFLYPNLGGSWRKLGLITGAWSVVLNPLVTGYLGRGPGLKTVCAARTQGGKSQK
Description: Cell-based aequorin assay using human GPR40. Particulars: activation of human GPR40; CHO cells transfected with GPR40 and aequorin expression vectors; aequorin luminescence, area-under-curve 2-20 seconds; read-out: Relative EC50. As for the experimental part:
A cell-based aequorin assay may be employed to characterize the modulatory activity of compounds on the GPR40 signaling pathway. In an exemplary assay, CHO cells are transfected in a 15 cm plated containing 14 million cells with 5 μg of GPR40 expression vector and 5 μg of Aequorin expression vector (Euroscreen) using Lipofectamine 2000 (Invitrogen). After 17-24 hours post-transfection, cells are washed with phosphate buffered saline (PBS) and detached from the tissue culture dish with 2 mL of trypsin (0.25%(w/v)). Trypsinization is halted with 28 mL of Hanks Buffered Salt Solution containing 20 mM Hepes (H/HBSS) and 0.01% fatty acid-free bovine serum albumin (BSA) or 0.625% fatty acid-free human serum albumin (HSA). Coelantrazine is added to 1 ug/mL and the cells are incubated for 2 hours at room temperature. Cells are gently mixed every 15 minutes. Compounds are dissolved in dimethyl sulfoxide for preparation of 10 mM stock solutions. Compounds are diluted in H/HBSS containing either 0.01% BSA or 0.625% HSA. Serial dilutions of the test compounds are prepared to determine dose response.
Aequorin luminescence measurements are made using an EG&G Berthold 96-well luminometer and the response is measured over a 20 second interval after cells and compounds were mixed. The area-under-curve from 2-20 seconds is plotted to determine dose reponse. The EC50 (effective concentration to reach 50% maximal response) is determined from the dose response plot. […]
Turning to `CC#CC(CC(=O)O)c1ccc(OCc2ccc(OC)cc2)cc1` (racemic) [Compound 12, (±)-3-(4-[(4-methoxyphenyl)methoxy]phenyl)-hex-4-ynoic acid], the EC50 was in the range of 100 to 1000 nM.

`CC#C[C@@H](CC(=O)O)c1ccc(OCc2ccccc2C)cc1` (single isomer, unassigned) [Compound 15]: the EC50 lay within 10 to 100 nM.

For the molecule `Cc1ccc(C(CC(=O)O)c2ccc(OCc3cccc(Oc4ccccc4)c3)cc2)cc1` (single isomer, unassigned) [Compound 84.2], the 50% effective concentration (EC50) lay in the range of 1000 to 10000 nM.

Consider `Cc1ccc(C(CC(=O)O)c2ccc(OCc3cccc(Oc4ccccc4)c3)cc2)cc1` (single isomer, unassigned) [Compound 84.3], for which the half-maximal effective concentration (EC50) lay within 100 to 1000 nM.

With `CN(C)[C@@H](CC(=O)O)c1ccc(OCc2cccc(Oc3ccc(F)cc3)c2)cc1` (stereo in doubt) [Compound 42.14, 3-Dimethylamino-3-{4-[3-(4-fluoro-phenoxy)-benzyloxy]-phenyl}-propionic acid], the EC50 fell in the range of 100 to 1000 nM.

For `CC#C[C@@H](CC(=O)O)c1ccc(OCc2sc(-c3ccc(C)cc3)nc2C)cc1` [Compound 3, (S)-3-[4-(4-Methyl-2-p-tolyl-thiazol-5-ylmethoxy)-phenyl]-hex-4-ynoic acid], the EC50 is less than 10 nM.

For `CC#C[C@@H](CC(=O)O)c1ccc(OCc2cc(-c3ccccc3)oc2C)cc1` [Compound 5, 3-[4-(2-Methyl-5-phenyl-furan-3-ylmethoxy)-phenyl]-hex-4-ynoic acid], the half-maximal effective concentration (EC50) was in the range of 10 to 100 nM.

As to `CC#CC(CC(=O)O)c1ccc(OCc2cccc(-c3ccccc3)c2)cc1` (centres unmarked) [Compound 6.1], the 50% effective concentration (EC50) is 10 to 100 nM.

With `CC#CC(CC(=O)O)c1ccc(OCc2cccc(-c3ccccc3OCC)c2)cc1` (centres unmarked) [Compound 6.2], the half-maximal effective concentration (EC50) lay in the range of 10 to 100 nM.

With `CC#CC(CC(=O)O)c1ccc(OCc2cccc(-c3ccc(OCC)cc3)c2)cc1` (centres unmarked) [Compound 6.3], the EC50 is 10 to 100 nM.

Regarding `CC#CC(CC(=O)O)c1ccc(OCc2cccc(-c3ccc(C#N)cc3)c2)cc1` (centres unmarked) [Compound 6.7], the half-maximal effective concentration (EC50) was 10 to 100 nM.

In the case of `CC#CC(CC(=O)O)c1ccc(OCc2cccc(-c3ccccc3C(F)(F)F)c2)cc1` (centres unmarked) [Compound 6.8], the EC50 was 10 to 100 nM.

For `CC#CC(CC(=O)O)c1ccc(OCc2cccc(-c3cccc(C(F)(F)F)c3)c2)cc1` (centres unmarked) [Compound 6.9], the EC50 is 10 to 100 nM.

As for `CC#CC(CC(=O)O)c1ccc(OCc2ccc(-c3ccccc3)cc2)cc1` (centres unmarked) [Compound 7.3], the EC50 fell in the range of 1000 to 10000 nM.

Regarding `CC#CC(CC(=O)O)c1ccc(OCc2ccc(-c3ccccc3OCC)cc2)cc1` (centres unmarked) [Compound 7.5], the EC50 is 10 to 100 nM.

Take `CC#CC(CC(=O)O)c1ccc(OCc2ccc(-c3cccc(OCC)c3)cc2)cc1` (centres unmarked) [Compound 7.8]: the EC50 was in the range of 100 to 1000 nM.

For the molecule `CC#CC(CC(=O)O)c1ccc(OCc2ccc(-c3ccc(OCC)cc3)cc2)cc1` (centres unmarked) [Compound 7.9], the half-maximal effective concentration (EC50) lay within 100 to 1000 nM.

For `CC#CC(CC(=O)O)c1ccc(OCc2ccc(-c3ccc(C(F)(F)F)cc3)cc2)cc1` (centres unmarked) [Compound 7.10], the 50% effective concentration (EC50) lay in the range of 100 to 1000 nM.

In the case of `CC#CC(CC(=O)O)c1ccc(OCc2ccc(-c3ccc(C#N)cc3)cc2)cc1` (centres unmarked) [Compound 7.15], the EC50 was in the range of 10 to 100 nM.

With `CC#CC(CC(=O)O)c1ccc(OCc2csc(-c3ccc(C(F)(F)F)cc3)n2)cc1` (centres unmarked) [Compound 8.1], the concentration for a half-maximal effect (EC50) lay in the range of 10 to 100 nM.

With `CC#CC(CC(=O)O)c1ccc(OCc2csc(-c3ccccc3)n2)cc1` (centres unmarked) [Compound 8.2], the EC50 lay in the range of 10 to 100 nM.

`CC#CC(CC(=O)O)c1ccc(OCc2csc(-c3ccc(Cl)cc3)n2)cc1` (centres unmarked) [Compound 8.3]: the EC50 fell in the range of 10 to 100 nM.

With `CC#CC(CC(=O)O)c1ccc(OCc2csc(-c3ccc(OC)cc3)n2)cc1` (centres unmarked) [Compound 8.4], the EC50 was 10 to 100 nM.

`CC#CC(CC(=O)O)c1ccc(OCc2csc(-c3ccc(C)cc3)n2)cc1` (centres unmarked) [Compound 8.5]: the concentration giving a half-maximal response (EC50) fell in the range of 10 to 100 nM.

As to `CC#CC(CC(=O)O)c1ccc(OCc2csc(-c3ccc(OC)c(OC)c3)n2)cc1` (centres unmarked) [Compound 8.6], the 50% effective concentration (EC50) is 100 to 1000 nM.

`CC#CC(CC(=O)O)c1ccc(OCc2sc(-c3ccc(C(F)(F)F)cc3)nc2C)cc1` (centres unmarked) [Compound 9.1]: the half-maximal effective concentration (EC50) was in the range of 10 to 100 nM.

On to `CC#CC(CC(=O)O)c1ccc(OCc2sc(-c3ccc(C)cc3)nc2C)cc1` (centres unmarked) [Compound 9.2], for which the 50% effective concentration (EC50) is less than 10 nM.

As to `CC#CC(CC(=O)O)c1ccc(OCc2sc(-c3ccccc3)nc2C)cc1` (centres unmarked) [Compound 9.3], the EC50 lay within 10 to 100 nM.

On to `CC#CC(CC(=O)O)c1ccc(OCc2sc(-c3ccc(OC)c(OC)c3)nc2C)cc1` (centres unmarked) [Compound 9.4], for which the concentration for a half-maximal effect (EC50) was 10 to 100 nM.

Regarding `CC#CC(CC(=O)O)c1ccc(OCc2cccc(N(CC)c3ccccc3)c2)cc1` (centres unmarked) [Compound 10.2], the EC50 lay in the range of 10 to 100 nM.

`CC#CC(CC(=O)O)c1ccc(OCc2cccc(Oc3ccccc3)c2)cc1` (centres unmarked) [Compound 10.3]: the half-maximal effective concentration (EC50) was in the range of 10 to 100 nM.

For `CC#CC(CC(=O)O)c1ccc(OCc2ccc(-c3ccccn3)cc2)cc1` (centres unmarked) [Compound 10.4], the concentration giving a half-maximal response (EC50) lay within 10 to 100 nM.

`CC#CC(CC(=O)O)c1ccc(OCc2ccc(S(=O)(=O)c3ccccc3)cc2)cc1` (centres unmarked) [Compound 10.5]: the EC50 lay in the range of 100 to 1000 nM.

As to `CC#CC(CC(=O)O)c1ccc(OCc2ccc(Cc3ccccc3)cc2)cc1` (centres unmarked) [Compound 10.6], the concentration for a half-maximal effect (EC50) lay within 10 to 100 nM.

As for `CC#CC(CC(=O)O)c1ccc(OCc2ccc(CCc3ccccc3)cc2)cc1` (centres unmarked) [Compound 10.7], the EC50 was in the range of 100 to 1000 nM.

As for `CC#CC(CC(=O)O)c1ccc(OCc2cccc(-c3ccccn3)c2)cc1` (centres unmarked) [Compound 10.8], the concentration giving a half-maximal response (EC50) lay within 100 to 1000 nM.

In the case of `CC#CC(CC(=O)O)c1ccc(OCc2cccc(-c3cccnc3)c2)cc1` (centres unmarked) [Compound 10.9], the half-maximal effective concentration (EC50) lay in the range of 100 to 1000 nM.

With `CC#CC(CC(=O)O)c1ccc(OCc2cccc(-c3ccncc3)c2)cc1` (centres unmarked) [Compound 10.10], the 50% effective concentration (EC50) was 100 to 1000 nM.

`CC#CC(CC(=O)O)c1ccc(OCc2ccc(-c3cccnc3)cc2)cc1` (centres unmarked) [Compound 10.12]: the concentration giving a half-maximal response (EC50) was 1000 to 10000 nM.

As for `CC#CC(CC(=O)O)c1ccc(OCc2ccc(-c3ccncc3)cc2)cc1` (centres unmarked) [Compound 10.13], the half-maximal effective concentration (EC50) lay within 100 to 1000 nM.

Regarding `CC#CC(CC(=O)O)c1ccc(OCc2cccc(-n3cccc3)c2)cc1` (centres unmarked) [Compound 10.14], the EC50 was 10 to 100 nM.

On to `CC#CC(CC(=O)O)c1ccc(OCc2cnn(-c3ccc(F)cc3)c2C)cc1` (centres unmarked) [Compound 11.1], for which the EC50 lay within 100 to 1000 nM.

With `COc1ccc(COc2ccc(C(C#C[Si](C)(C)C)CC(=O)O)cc2)cc1` (centres unmarked) [Compound 14.1], the concentration giving a half-maximal response (EC50) lay in the range of 1000 to 10000 nM.

As for `COc1ccc(COc2ccc(C(CC(=O)O)c3ccc(F)cc3)cc2)cc1` (centres unmarked) [Compound 14.2], the EC50 is 100 to 1000 nM.

With `CCC(CC(=O)O)c1ccc(OCc2ccc(OC)cc2)cc1` (centres unmarked) [Compound 14.3], the EC50 lay in the range of 1000 to 10000 nM.

Consider `COc1ccc(COc2ccc(C(C)CC(=O)O)cc2)cc1` (centres unmarked) [Compound 14.4], for which the EC50 is more than 10000 nM.

Take `COCC#CC(CC(=O)O)c1ccc(OCc2ccc(OC)cc2)cc1` (centres unmarked) [Compound 14.5]: the EC50 was in the range of 1000 to 10000 nM.

Consider `COc1ccc(COc2ccc(C(C#Cc3ccccc3)CC(=O)O)cc2)cc1` (centres unmarked) [Compound 14.6], for which the 50% effective concentration (EC50) fell in the range of 1000 to 10000 nM.

For `CC#CC(CC(=O)O)c1ccc(OCc2ccccc2C)cc1` (centres unmarked) [Compound 17.6], the concentration for a half-maximal effect (EC50) is 100 to 1000 nM.

As for `CC#CC(CC(=O)O)c1ccc(OCCc2ccccc2)cc1` (centres unmarked) [Compound 17.8], the concentration for a half-maximal effect (EC50) is 1000 to 10000 nM.

As a reminder, the EC50 is the midpoint of the concentration-response curve.
